From the NIST ThermoML archive (doi:10.1021/acs.jced.7b00039)

How the values were obtained:
[1] = wn = mass fraction of the nth substance listed; settings: 100 kPa, Liquid; for viscosity: Cone and plate viscometry; for mass density: Vibrating tube method
[2] = 100 kPa, Liquid; for viscosity: Cone and plate viscometry; for mass density: Vibrating tube method

CC(CC(C)(C)C)CP(=O)([O-])CC(C)CC(C)(C)C.CCCCCCCCCCCCCC[P+](CCCCCC)(CCCCCC)CCCCCC + O
[1]
Settings	mass density, 298 K [kg/m3]	mass density, 310 K [kg/m3]	mass density, 318 K [kg/m3]	viscosity, 298 K [mPa·s]	viscosity, 310 K [mPa·s]	viscosity, 318 K [mPa·s]
w2 = 0.00047	884.09	876.93	872.2	1023	521	345
w2 = 0.00122	884.98	877.82	873.07	996	512	337
w2 = 0.00289	886.11	878.88	874.07	924	476	313
w2 = 0.00582	886.78	879.48	874.64	796	401	263
w2 = 0.0147	887.75	880.36	875.46	646	321	210
w2 = 0.0317	890.65	883.04	878.08	431	211	137
w2 = 0.081	898.06	890.2	884.95	261	125	81.6
w2 = 0.142	–	–	893.78	–	–	55.6
w2 = 0.146	–	900.11	–	–	79.7	–
w2 = 0.154	–	–	–	142	–	–
w2 = 0.156	909.07	–	–	142	–	–

CC(CC(C)(C)C)CP(=O)([O-])CC(C)CC(C)(C)C.CCCCCCCCCCCCCC[P+](CCCCCC)(CCCCCC)CCCCCC
[2]
Settings	mass density [kg/m3]	viscosity [mPa·s]
298 K	883.68	1023
310 K	876.52	521
318 K	871.79	345

O [water]
[2]
Settings	mass density [kg/m3]	viscosity [mPa·s]
298 K	–	0.89
310 K	993.35	0.686
318 K	–	0.581

O [water] + CC(CC(C)(C)C)CP(=O)([O-])CC(C)CC(C)(C)C.CCCCCCCCCCCCCC[P+](CCCCCC)(CCCCCC)CCCCCC
[1], w1 = 1
Settings	mass density [kg/m3]	viscosity [mPa·s]
298 K	–	0.89
310 K	993.35	0.686
318 K	–	0.581
